Measured values from patent US7476687B2, “Substituted furo[2,3-g]indazoles for the treatment of glaucoma” (Alcon, Inc., priority 2003, dated 2009).
pEC50, pIC50: −log10 of the molar value. Counter-ions that a name gives are not always drawn.

Columns and labels:
[1] = molecular target: T1, 5HT2A(rat) (Rattus norvegicus, UniProt P14842); experiment: 5HT2 Functional Assay: [Ca2+]i Mobilization (FLIPR, A7r5 cells); assay type: cell-based; parameters: endogenous in cells; host or cells: A7r5 rat vascular smooth muscle cells; conditions: for pEC50: [Ca2+]i mobilization, rat vascular smooth muscle cells A7r5; for Emax: percentage of maximum 5-HT-induced response, A7r5 cells
Description: The receptor-mediated mobilization on intracellular calcium ([Ca^2+]i) was studied using the Fluorescence Imaging Plate Reader (FLIPR) instrument. Rat vascular smooth muscle cells, A7r5, were grown in a normal media of DMEM/10% FBS and 10 μg/mL gentamycin. Confluent cell monolayers were trypsinized, pelleted, and re-suspended in normal media. Cells were seeded in a 50 μL volume at a density of 20,000 cells/well in a black wall, 96-well tissue culture plate and grown for 2 days.
On the day of the experiment, one vial of FLIPR Calcium Assay Kit dye was re-suspended in 50 mL of a FLIPR buffer consisting of Hank's Balanced Salt Solution (HBSS), 20 mM HEPES, and 2.5 mM probenecid, pH 7.4. Cells were loaded with the calcium-sensitive dye by addition of an equal volume (50 μL) to each well of the 96-well plate and incubated with dye for 1 h at 23° C.
Compounds were diluted 1:50 in 20% DMSO/20% Ethanol. For “hit” screening, compounds were further diluted 1:10 in FLIPR buffer and tested at a final concentration of 10 μM.
The compound plate and cell plate were placed in the FLIPR instrument. At the beginning of an experimental run, a signal test was performed to check the basal fluorescence signal from the dye-loaded cells and the uniformity of the signal across the plate. The basal fluorescence was adjusted between 8000-12000 counts by modifying the exposure time, the camera F-stop, or the laser power. Instrument settings for a typical assay were the following: laser power 0.3-0.6 W, camera F-stop F/2, and exposure time 0.4 sec. An aliquot (25 μL) of the test compound was added to the existing 100 μL dye-loaded cells at a dispensing speed of 50 μL/sec. Fluorescence data were collected in real-time at 1.0 sec intervals for the first 60 secs and at 6.0 sec intervals for an additional 120 secs.

[2] = molecular target: T1, 5HT2A(rat); experiment: 5-HT2 Receptor Binding Assay ([125I]DOI competition, cerebral cortex homogenates); parameters: Aliquots of post mortem rat or human cerebral cortex homogenates (400 μL) dispersed in 50 mM TrisHCl buffer; from tissue; host or cells: post mortem rat cerebral cortex homogenate; conditions: inhibition of [125I]DOI binding
Description: 5-HT2 Receptor Binding Assay
Aliquots of post mortem rat or human cerebral cortex homogenates (400 μL) dispersed in 50 mM TrisHCl buffer (pH 7.4) are incubated with [^125I]DOI (80 pM final) in the absence or presence of methiothepin (10 μM final) to define total and non-specific binding, respectively, in a total volume of 0.5 mL. The assay mixture is incubated for 1 hour at 23° C. in polypropylene tubes and the assays terminated by rapid vacuum filtration over Whatman GF/B glass fiber filters previously soaked in 0.3% polyethyleneimine using ice-cold buffer. Test compounds (at different concentrations) are substituted for methiothepin. Filter-bound radioactivity is determined by scintillation spectrometry on a beta counter. The data are analyzed using a non-linear, iterative curve-fitting computer program [Trends Pharmacol. Sci., 16, 413 (1995)] to determine the compound affinity parameter. The concentration of the compound needed to inhibit the [^125I]DOI binding by 50% of the maximum is termed the IC50 or Ki value.

T1 sequence (P14842 whole entry): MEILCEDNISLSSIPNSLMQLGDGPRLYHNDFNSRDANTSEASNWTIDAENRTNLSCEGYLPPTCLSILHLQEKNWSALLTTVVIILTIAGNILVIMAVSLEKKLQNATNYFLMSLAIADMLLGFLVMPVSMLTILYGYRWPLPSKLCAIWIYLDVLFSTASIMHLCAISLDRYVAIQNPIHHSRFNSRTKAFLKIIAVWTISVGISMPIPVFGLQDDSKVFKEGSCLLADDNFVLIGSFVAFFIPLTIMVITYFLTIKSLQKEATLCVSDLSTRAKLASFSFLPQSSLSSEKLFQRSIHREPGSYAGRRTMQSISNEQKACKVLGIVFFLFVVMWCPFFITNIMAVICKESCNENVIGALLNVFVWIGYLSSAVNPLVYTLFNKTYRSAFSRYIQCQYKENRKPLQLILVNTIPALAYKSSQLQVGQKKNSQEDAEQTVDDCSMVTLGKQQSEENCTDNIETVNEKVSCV

C[C@H](N)Cn1ncc2ccc3oc(C(N)=O)cc3c21 (as salt: fumarate) [Example 3, 1-((S)-2-Aminopropyl)-1H-furo[2,3-g]indazole-7-carboxylic acid amide]
melting point: 170 to 172 °C

COCCNC(=O)c1cc2c(ccc3cnn(C[C@H](C)N)c32)o1 (as salt: fumarate) [Example 8, 1-((S)-2-Aminopropyl)-1H-furo[2,3-g]indazole-7-carboxylic acid (2-methoxyethyl)-amide]
melting point: 75 to 76 °C

CC(O)CNC(=O)c1cc2c(ccc3cnn(C[C@H](C)N)c32)o1 (stereo partly drawn) (as salt: fumarate) [Example 9, 1-((S)-2-Aminopropyl)-1H-furo[2,3-g]indazole-7-carboxylic acid (2-hydroxypropyl)-amide]
melting point: 190 to 191 °C

C[C@H](N)Cn1ncc2ccc3oc(C(=O)NCC4(O)CC4)cc3c21 (as salt: fumarate) [Example 10, 1-((S)-2-Aminopropyl)-1H-furo[2,3-g]indazole-7-carboxylic acid (1-hydroxy-cyclopropylmethyl)-amide]
melting point: 77 to 79 °C

C[C@H](N)Cn1ncc2ccc3oc(C(=O)NCC(C)(C)CO)cc3c21 (as salt: fumarate) [Example 11, 1-((S)-2-Aminopropyl)-1H-furo[2,3-g]indazole-7-carboxylic acid (3-hydroxy-2,2-dimethyl-propyl)-amide]
melting point: 103 °C

CC(=O)NCCCNC(=O)c1cc2c(ccc3cnn(C[C@H](C)N)c32)o1 (as salt: fumarate) [Example 12, 1-((S)-2-Amino-propyl)-1H-furo[2,3-g]indazole-7-carboxylic acid (3-acetylaminopropyl)-amide]
melting point: 81 °C

C[C@H](N)Cn1ncc2ccc3oc(C(=O)NCCCN4CCCC4=O)cc3c21 (as salt: fumarate) [Example 13, 1-((S)-2-Aminopropyl)-1H-furo[2,3-g]indazole-7-carboxylic acid [3-(2-oxo-pyrrolidin-1-yl)-propyl]-amide]
melting point: 82 °C

Cc1ccc(CNC(=O)c2cc3c(ccc4cnn(C[C@H](C)N)c43)o2)o1 (as salt: fumarate) [Example 14, 1-((S)-2-Aminopropyl)-1H-furo[2,3-g]indazole-7-carboxylic acid (5-methyl-furan-2-ylmethyl)amide]
melting point: 118 to 120 °C

Cc1noc(-c2cc3c(ccc4cnn(C[C@H](C)N)c43)o2)n1 (as salt: fumarate) [Example 15, (S)-1-Methyl-2-[7-(3-methyl-1,2,4-oxadiazol-5-yl)-furo[2,3-g]indazol-1-yl]-ethylamine]
melting point: 187 to 189 °C

CCOC(=O)c1cc2c(ccc3cnn(C[C@H](C)N)c32)o1.O=C(O)/C=C/C(=O)O [Example 1, 1-((S)-2-Aminopropyl)-1H-furo[2,3-g]indazole-7-carboxylic acid ethyl ester fumarate]
melting point: 184 to 185 °C
pEC50 [1]: 7.20
Emax [1]: 101%
pIC50 [2]: 9.68

C[C@H](N)Cn1ncc2ccc3oc(CO)cc3c21 [Example 2, [1-((S)-2-Aminopropyl)-1H-furo[2,3-g]indazol-7-yl]-methanol]
melting point: 110 to 112 °C
pEC50 [1]: 7.74
Emax [1]: 86%
pIC50 [2]: 9.28

C[C@H](N)Cn1ncc2ccc3oc(C(=O)NCCO)cc3c21 [Example 5, 1-((S)-2-Aminopropyl)-1H-furo[2,3-g]indazole-7-carboxylic acid (2-hydroxyethyl)-amide fumarate]
pEC50 [1]: 7.26
Emax [1]: 94%
pIC50 [2]: 8.46

C[C@H](N)Cn1ncc2ccc3oc(C(=O)NCCc4cnc[nH]4)cc3c21.O=C(O)/C=C/C(=O)O [Example 6, 1-((S)-2-Aminopropyl)-1H-furo[2,3-g]indazole-7-carboxylic acid [2-(3H-imidazol-4-yl)-ethyl]-amide fumarate]
melting point: 201 to 203 °C
pEC50 [1]: 7.24
Emax [1]: 95%
pIC50 [2]: 9.18

C[C@H](N)Cn1ncc2ccc3oc(C(=O)NCCN4CCOCC4)cc3c21 [Example 7, 1-((S)-2-Aminopropyl)-1H-furo[2,3-g]indazole-7-carboxylic acid (2-morpholin-4-yl-ethyl)-amide]
pEC50 [1]: 6.96
Emax [1]: 89%
pIC50 [2]: 8.89

COCCNC(=O)c1cc2c(ccc3cnn(C[C@H](C)N)c32)o1 [Example 8, 1-((S)-2-Aminopropyl)-1H-furo[2,3-g]indazole-7-carboxylic acid (2-methoxyethyl)-amide]
pEC50 [1]: 7.27
Emax [1]: 94%
pIC50 [2]: 8.64

CC(O)CNC(=O)c1cc2c(ccc3cnn(C[C@H](C)N)c32)o1 (stereo partly drawn) [Example 9, 1-((S)-2-Aminopropyl)-1H-furo[2,3-g]indazole-7-carboxylic acid (2-hydroxypropyl)-amide]
pEC50 [1]: 7.57
Emax [1]: 98%
pIC50 [2]: 8.82

C[C@H](N)Cn1ncc2ccc3oc(C(=O)NCC4(O)CC4)cc3c21 [Example 10, 1-((S)-2-Aminopropyl)-1H-furo[2,3-g]indazole-7-carboxylic acid (1-hydroxy-cyclopropylmethyl)-amide]
pEC50 [1]: 7.82
Emax [1]: 94%
pIC50 [2]: 8.96

CC(=O)NCCCNC(=O)c1cc2c(ccc3cnn(C[C@H](C)N)c32)o1 [Example 12, 1-((S)-2-Amino-propyl)-1H-furo[2,3-g]indazole-7-carboxylic acid (3-acetylaminopropyl)-amide]
pEC50 [1]: 7.43
Emax [1]: 95%
pIC50 [2]: 8.85

C[C@H](N)Cn1ncc2ccc3oc(C(=O)NCCCN4CCCC4=O)cc3c21 [Example 13, 1-((S)-2-Aminopropyl)-1H-furo[2,3-g]indazole-7-carboxylic acid [3-(2-oxo-pyrrolidin-1-yl)-propyl]-amide]
pEC50 [1]: 7.14
Emax [1]: 87%
pIC50 [2]: 8.70

Cc1ccc(CNC(=O)c2cc3c(ccc4cnn(C[C@H](C)N)c43)o2)o1 [Example 14, 1-((S)-2-Aminopropyl)-1H-furo[2,3-g]indazole-7-carboxylic acid (5-methyl-furan-2-ylmethyl)amide]
pEC50 [1]: 6.74
Emax [1]: 94%
pIC50 [2]: 9.52

Cc1noc(-c2cc3c(ccc4cnn(C[C@H](C)N)c43)o2)n1 [Example 15, (S)-1-Methyl-2-[7-(3-methyl-1,2,4-oxadiazol-5-yl)-furo[2,3-g]indazol-1-yl]-ethylamine]
pEC50 [1]: 6.55
Emax [1]: 101%
pIC50 [2]: 9.05

CNC(=O)Cc1cc2c(ccc3cnn(C[C@H](C)N)c32)o1 [Example 16, 2-[1-((S)-2-Amino-propyl)-1H-furo[2,3-g]indazol-7-yl]-N-methyl-acetamide]
pEC50 [1]: 7.55
Emax [1]: 97%
pIC50 [2]: 9.15

C[C@H](N)Cn1ncc2ccc3oc(CNC(=O)c4cccnc4)cc3c21 [Example 17]
pEC50 [1]: 7.66
Emax [1]: 95%
pIC50 [2]: 8.52

CCNC(=O)NCc1cc2c(ccc3cnn(C[C@H](C)N)c32)o1 [Example 18, 1-[1-((S)-2-Aminopropyl)-1H-furo[2,3-g]indazol-7-ylmethyl]-3-ethylurea]
pEC50 [1]: 7.64
Emax [1]: 87%
pIC50 [2]: 8.39

CC(=O)Nc1ccc(S(=O)(=O)NCc2cc3c(ccc4cnn(C[C@H](C)N)c43)o2)cc1 [Example 19, N-(4-{[1-((S)-2-Aminopropyl)-1H-furo[2,3-g]indazol-7-ylmethyl]-sulfamoyl}-phenyl)-acetamide]
melting point: 80 to 85 °C
pEC50 [1]: 6.88
Emax [1]: 82%
pIC50 [2]: 8.39

C[C@H](N)Cn1ncc2ccc3oc(CN4CCN(c5ccccn5)CC4)cc3c21 [Example 20, (S)-1-Methyl-2-[7-(4-pyridin-2-yl-piperazin-1-ylmethyl)-furo[2,3-g]indazol-1-yl]-ethylamine]
pEC50 [1]: 6.85
Emax [1]: 81%
